# Peptide text beside a SMILES is read from it. * marks the point of attachment. Cbz = O=C(OCc1ccccc1)*; CHN2 = [N-]=[N+]=C*; tBu = CC(C)(C)*
# Tested on: northern shrimp cathepsin L1
# Assay: Effects of inhibitors on northern shrimp cathepsin L1, residual activity with Z-Phe-Arg-MCA
# Format: biochemical, northern shrimp (Pandalus eous)
# Conditions: for Residual activity (%): enzyme 1 nM, Z-Phe-Arg-MCA 100 μM
# Procedure: Enzymatic activity was assayed at 25° C. using intramolecularly quenched MCA (methyl coumarylamide) substrates in a buffer containing 100 mM sodium acetate, pH 6.0, 100 mM NaCl, 2 mM DTT, 2 mM EDTA and 0.01% Brij-35. The substrate solution was prepared in dimethyl sulfoxide at a concentration of 20 mM. Hydrolysis was initiated by adding the enzyme diluted with the same buffer. Enzymatic activity was determined by measuring fluorescence intensity of the released 7-amino-4-methylcoumarin (AMC) at an excitation wavelength of 380 nm and an emission wavelength of 460 nm.
# Enzyme solution was pretreated with any one of inhibitors E64 (L-trans-epoxysuccinyl-leucyl-agmatine), Z-Phe-Phe-CHN2, Z-Phe-Tyr(t-Bu)-CHN2, leupeptin, antipain, PMSF (phenylmethylsulfonyl fluoride), and 1,10-phenanthroline in a buffer (containing 100 mM sodium acetate, 2 mM DTT, 2 mM EDTA, and 0.05% Triton X-100). Residual enzymatic activity was then measured with fluorescent substrate Z-Phe-Arg-MCA. The final concentrations of the enzymes and the substrate were 1 nM and 100 μM, respectively. The residual enzymatic activity was measured with the method described above.
Structure (SMILES),Inhibition of northern shrimp cathepsin L1 (in words),Residual activity (%) (inhibitor 0.1 μM),Residual activity (%) (inhibitor 1 μM),Residual activity (%) (inhibitor 1 mM),Residual activity (%) (inhibitor 10 mM),Residual activity (%) (inhibitor 10 μM)
"CC(C)C[C@H](NC(=O)[C@H]1O[C@@H]1C(=O)O)C(=O)NCCCCN=C(N)N (relative stereo) [E64, L-trans-epoxysuccinyl-leucyl-agmatine]",strongly inhibited,0,0,–,–,–
"c1cnc2c(c1)ccc1cccnc12 [1,10-Phenanthroline, 1,10-phenanthroline]",–,–,–,99,98,–
"CC(=O)N[C@@H](CC(C)C)C(=O)N[C@@H](CC(C)C)C(=O)N[C@H](C=O)CCCNC(=N)N [Leupeptin, leupeptin]",strongly inhibited,–,0,–,–,0
"O=S(=O)(F)Cc1ccccc1 [PMSF, phenylmethylsulfonyl fluoride]",–,–,–,100,100,–
[N-]=[N+]=CC(=O)[C@H](Cc1ccccc1)NC(=O)[C@H](Cc1ccccc1)NC(=O)OCc1ccccc1 [Z-Phe-Phe-CHN2] (Cbz-Phe-Phe-CHN2),did not inhibit the present enzyme activity so much,–,78,–,–,55
CC(C)(C)Oc1ccc(C[C@H](NC(=O)[C@H](Cc2ccccc2)NC(=O)OCc2ccccc2)C(=O)C=[N+]=[N-])cc1 [Z-Phe-Tyr(t-Bu)-CHN2] (Cbz-Phe-Tyr(tBu)-CHN2),did not inhibit the present enzyme activity so much,–,94,–,–,86
